Data on one compound can be found in US20250368651A1 (priority 2022, published 2025).

Like-named read-outs stand apart in the source and are kept apart here.

Usually Kd stands for the free concentration of one partner at which half of the binding sites on the other are occupied at equilibrium, for simple one-to-one binding. By EC50 is commonly meant the concentration that produces a half-maximal response.

In assay [1] the target is DNA Seq8 (UGAAGGAAGUU as deoxyribonucleotides). Kind of assay: FP binding assay, DNA Seq8. To be noted: Seq 8; 0.5 μM SMN-C2. How it is done: (§1) All synthetic DNA and RNA oligomers were purchased from Integrated DNA Technologies and reconstituted in nuclease-free water (Invitrogen #AM9932) at 1 mM. The concentration of the oligonucleotides at ˜0.1 mM was calibrated with the A260 value measured by a NanoDrop ND-1000 (Thermo, Waltham, MA, USA) and the predicted extinction coefficient (http://www.oligoevaluator.com) using Lamber-Beer's Law. The risdiplam analogues (1 mM in DMSO) were diluted in 2× assay buffer (40 mM HEPES, 200 mM NaCl for RNA; 40 mM HEPES, 200 mM NaCl, 1 mM MgCl2 for DNA) to make a 1 μM 2× working solution.
(§2) A 1:2 dilution series (8 points) of each oligonucleotide was prepared in 20-30 μL water to desired concentrations (i.e., 1-128 μM). […] For fluorescence polarization measurement, 20 μL of the above 1× working solution was transferred into a 384-well, black, F-bottom microplates (Greiner Bio-One) in duplicates or triplicates. The plate was equilibrated at room temperature for 5 min before being read using a microplate reader (SYNERGY H1, BioTek; Excitation/Emission=360/460 nm) at 25° C. […] The mixture was then transferred into a microplate (20 μL each well) in duplicates for fluorescence polarization readout. The experimental data were analyzed using Prism 8 software (Graphpad Software, San Diego, CA, USA).

In a further assay the target is DNA S21 […]. The assay is described as follows: FP binding assay, 18-nt DNA S21. The procedure: as §1, §2
A further assay concerns the target DNA Seq9 TTAAGGAAGTT
Kind of assay: FP binding assay, DNA Seq9. To be noted: Seq 9 TTAAGGAAGTT; 0.5 μM SMN-C2. How it is done: as §1, §2

Assay [2] has as its target RNA Seq18: 1:1 annealed U1 snRNA binding sequence 5′-AUACΨΨACCU and 5′ splice site 5′-GGAGGUAAGUCU
Kind of assay: FP binding assay, dsRNA Seq18 (binding site 1 sequence). To be noted: Seq 18, binding site 1 sequence (dsRNA); 0.5 μM SMN-C2. The procedure: as §1, §2

Another assay deals with DNA Seq12 TGAAAGAAGGT
The assay is described as follows: FP binding assay, DNA Seq12. To be noted: Seq 12 TGAAAGAAGGT; 0.5 μM SMN-C2. How it is done:
as §1, §2

For the next assay, the target named is RNA Seq10 UAAAGGAAGGU
The assay is described as follows: FP binding assay, RNA Seq10. To be noted: Seq 10 UAAAGGAAGGU; 0.5 μM SMN-C2. How it is done: as §1, §2

Another assay deals with DNA S15 […]. Kind of assay: FP binding assay, 18-nt DNA S15. How it is done: as §1, §2
Another assay has as its target DNA S14 […]. Kind of assay: FP binding assay, 18-nt DNA S14. How it is done:
as §1, §2

The target of another assay is DNA Seq16 TGAAGGAAAGT
Kind of assay: FP binding assay, DNA Seq16. The following applies: Seq 16 TGAAGGAAAGT; 0.5 μM SMN-C2. How it is done:
as §1, §2

The next assay relates to SMN2 exon 7 splicing. Kind of assay: Cell-based SMN2 splicing assay in 293T cells (minigene). The arrangement: species or system human. The following applies: Homo sapiens, HEK-293T.
In a further assay the target is DNA S23 […]. Kind of assay: FP binding assay, 18-nt DNA S23. The procedure:
as §1, §2

For the next assay, the target named is DNA S26 d(TGAAGGAAGG). The assay is described as follows: FP binding assay, 10-nt DNA S26. The procedure:
as §1, §2

A further assay addresses RNA Seq4 […]. Kind of assay: FP binding assay, RNA Seq4. The procedure: as §1
A 1:2 dilution series (8 points) of each oligonucleotide was prepared in 20-30 μL water to desired concentrations (i.e., 1-128 μM). 20-30 μL 2× working solution containing the 2× assay buffer and the small-molecule ligand was added to each oligonucleotide sample in 1:1 (v/v) and mixed by pipetting for 4 times. For fluorescence polarization measurement, 20 μL of the above 1× working solution was transferred into a 384-well, black, F-bottom microplates (Greiner Bio-One) in duplicates or triplicates. The plate was equilibrated at room temperature for 5 min before being read using a microplate reader (SYNERGY H1, BioTek; Excitation/Emission=360/460 nm) at 25° C. For compound SMN-C5, a competitive binding assay was employed to measure an apparent Kd. SMN-C5 was 1:2 serial diluted for 10 concentration points starting at 750 μM in DMSO. A mixture of SMN-C2 (0.5 μM) and DNA Seq6 (25 μM) in 1× assay buffer was prepared and incubated at room temperature for 10 minutes. 3 μL of SMN-C5 solution at each concentration was added to a 42 μL SMN-C2/DNA Seq6 mixture and incubated at room temperature for 10 minutes. The mixture was then transferred into a microplate (20 μL each well) in duplicates for fluorescence polarization readout. The experimental data were analyzed using Prism 8 software (Graphpad Software, San Diego, CA, USA).

For a further assay, the target named is DNA S25 […]. Kind of assay: FP binding assay, 18-nt DNA S25. The procedure:
as §1, §2

The next assay concerns the target DNA Seq6. Kind of assay: Isothermal titration calorimetry (ITC), DNA Seq6. The assay is classed as binding. The following applies: SMN-C2 250 μM into DNA Seq6 25 μM; MES buffer, 5% DMSO, 100 mM NaCl. How it is done: Excess amount of SMN-C2 was eluted at retention volume ˜21 mL. The figures are the representation of three independent experiments.
Isothermal calorimetric titrations were carried out on a Malvern Analytical MicroCal PEAQ-ITC at 25° C. The DNA (see above for the calibration procedure) and the SMN-C2 water solutions containing the desired amount of the materials were freeze-dried overnight (Labconco FreeZone 4.5 Liter Benchtop Freeze Dry System) and then re-suspended in appropriate volume of buffer containing 5% DMSO, 100 mM NaCl and 30 mM MES buffer at pH 6.0 (e.g., 350 μL for DNA Seq6, 80 μL for SMN-C2). […] The analysis was performed using the instrument's MicroCal PEAQ-ITC Analysis Software (Malvern Analytical). The ITC data was fit using the One Set of Sites mode to calculate the dissociate constant (Kd), binding stoichiometry, and the changes in enthalpy and Gibbs free energy. In differential power (DP) trace, the baseline was subtracted for better visualization, which has no impact on calculations.
On the technique in general: Isothermal titration calorimetry measures the heat released or taken up as one component is titrated into another.

In the next assay the target is DNA S18 […]. The assay is described as follows: FP binding assay, 18-nt DNA S18. How it is done: as §1, §2
A further assay addresses RNA Seq7 UUAAGGAAGGU
Kind of assay: FP binding assay, RNA Seq7. The following applies: Seq 7 UUAAGGAAGGU; 0.5 μM SMN-C2. How it is done:
as §1, §2

For another assay, the target named is RNA Seq8 UGAAGGAAGUU
The assay is described as follows: FP binding assay, RNA Seq8. The following applies: Seq 8 UGAAGGAAGUU; 0.5 μM SMN-C2. The procedure:
as §1, §2

For a further assay, the target named is DNA Seq15 TGAAGGATGGT
Kind of assay: FP binding assay, DNA Seq15. The following applies: Seq 15 TGAAGGATGGT; 0.5 μM SMN-C2. How it is done:
as §1, §2

The target in the next assay is DNA S16 […]. The assay is described as follows: FP binding assay, 18-nt DNA S16. How it is done: as §1, §2
Another assay has as its target DNA Seq2 d(GAAGGAAGG). The assay is described as follows: FP binding assay, 9-nt DNA Seq2. The procedure: as §1, §2
A further assay has as its target DNA S19 […]. The assay is described as follows: FP binding assay, 18-nt DNA S19. How it is done: as §1, §2

Take `CCN1CCN(c2ccc3cc(-c4cn5cc(C)nc(C)c5n4)c(=O)oc3c2)C[C@@H]1C` [SMN-C2, (S)-3-(6,8-dimethylimidazo[1,2-a]pyrazin-2-yl)-7-(4-ethyl-3-methylpiperazin-1-yl)-2H-chromen-2-one]: the dissociation constant (Kd) in [1] is 14.7 ± 0.7 µM; on DNA S21 […], above 50 µM; at DNA Seq9 TTAAGGAAGTT, above 100 µM; in assay [2] it was 60 ± 36 µM; on DNA Seq12 TGAAAGAAGGT it was 17.6 ± 3.4 µM; on RNA Seq10 UAAAGGAAGGU, above 100 µM. The Kd at DNA S15 […] was 31.4 ± 4 µM; at DNA S14 […] it was 19.5 ± 2.3 µM; at DNA Seq16 TGAAGGAAAGT it was 27.4 ± 6 µM; on DNA S23 […], above 50 µM; on DNA S26 d(TGAAGGAAGG), 6.2 ± 1 µM; at RNA Seq4 […], 21.7 ± 4.3 µM. Besides, the Kd on DNA S25 […] is 48 ± 7.8 µM; on DNA Seq6 it was 4.8 µM; at DNA S18 […] it was above 50 µM; on RNA Seq7 UUAAGGAAGGU, 42.3 ± 13.3 µM; at RNA Seq8 UGAAGGAAGUU it was above 100 µM; on DNA Seq15 TGAAGGATGGT, 41.1 ± 4.4 µM. Further, the Kd on DNA S16 […] worked out at 48.9 ± 12.2 µM; on DNA Seq2 d(GAAGGAAGG), 34.3 ± 9.6 µM; on DNA S19 […] it was 21 ± 1.1 µM. Moreover, the EC50 in the assay with SMN2 exon 7 splicing (Table 3, read-out: SMN2 Splicing EC50) is 0.0635 ± 0.0296 µM; in the assay on SMN2 exon 7 splicing (cell-based SMN2 splicing assay in 293T cells, read-out: SMN2 EC50) it was 0.26 ± 0.13 µM.
